The record followed here is patent US11834428B2, “Dihydromyricetin nanocrystals and preparation method and application thereof” (Shaanxi University of Science and Technology, priority 2022, dated 2023).

Data set [1] can be described thus: Solubility of dihydromyricetin nanocrystals and API (solubility in cold water). The format is physicochemical. As to conditions: for solubility: cold water. From the text:
1. The Effect of Stabilizers on the Particle Size and Solubilization Effect of the Dihydromyricetin Nanocrystals, See Table 1.

The nature of data set [2]: Particle size of dihydromyricetin nanocrystals. It is filed as physicochemical. As to conditions: API. The procedure: In order to describe the dihydromyricetin nanocrystals provided by the disclosure, the relevant properties of the embodiments 1 to 6 and the comparative embodiments are measured. 1. The Effect of Stabilizers on the Particle Size and Solubilization Effect of the Dihydromyricetin Nanocrystals, See Table 1.

In brackets after ≈: the same amount, converted by molar mass.

For the compound `O=C1c2c(O)cc(O)cc2O[C@H](c2cc(O)c(O)c(O)c2)[C@H]1O` [Dihydromyricetin API, Dihydromyricetin], the solubility came out at 300 µg/mL (≈ 937 µM) in data set [1] (aqueous with cosolvent or surfactant or cyclodextrin, stabilizer sodium dodecyl sulfate (SDS)) and 40 µg/mL (≈ 125 µM) in data set [1] (water, no stabilizer (/)). Besides, the “Solubility in cold water” value in data set [1] (stabilizer Tween-80) amounted to 600 µg/mL (≈ 1870 µM). This compound also registered a Particle size in data set [2] not below 12 μm.

The term solubility denotes how much of the substance goes into solution per volume.
